Converted amounts (≈) assume the structure as drawn. Bounds are passed on as bounds.

KRAS (G12D)::SOS1 protein-protein interaction, sequence (P01116 other isoform, or with tags, fused parts or gaps G12D): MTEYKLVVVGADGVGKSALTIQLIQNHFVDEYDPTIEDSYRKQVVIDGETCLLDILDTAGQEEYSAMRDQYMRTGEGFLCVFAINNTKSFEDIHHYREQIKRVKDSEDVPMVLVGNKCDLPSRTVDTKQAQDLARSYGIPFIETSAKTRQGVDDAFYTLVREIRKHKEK

One data set concerns the target KRAS (G12D)::SOS1 protein-protein interaction (Homo sapiens (Human), UniProt P01116, G12D). The data set can be described thus: KRAS::SOS1 AlphaScreen binding assay (KRAS G12D). The note with it: GDP. The method, boiled down:
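AlphaScreen assay with KRAS G12D (1-169, 6His/avi-tagged, 10 nM), GST-SOS1 564-1049 (5 nM) and GDP (10 μM) in PBS, 0.1% BSA, 0.05% Tween 20; compound up to 100 μM top concentration, eleven fivefold dilutions in duplicate. After 30 min, glutathione acceptor and streptavidin donor beads (10 μg/mL each) were added and signal read after a further 60 min at room temperature in the dark; IC50 from 4-parameter logistic fit.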
Background: Alpha assays give light when donor and acceptor beads are brought close together.
In general, IC50 refers to the concentration at which inhibition is half-maximal. Read a high IC50 as weaker potency in that assay. Molecule `C[C@H](Oc1nc(-c2noc3c2CCC[C@@]32CCCc3sc(N)c(C#N)c32)nc2c1CCC21CCOC1)[C@@H]1CCCN1C` (stereo partly drawn) [II-18] came in with an IC50 of 2 nM.

For the molecule `CCn1c(=O)n([C@@H]2CCOC2)c2nc(-c3onc4c3CCC[C@@]43CCCc4sc(N)c(C#N)c43)nc(O[C@@H](C)[C@@H]3CCCN3C)c21` [I-21], the IC50 was determined as 1 nM.

The molecule `C[C@H](Oc1nc(-c2onc3c2CCC[C@@]32CCCc3sc(N)c(C#N)c32)nc2c1n(C)c(=O)n2[C@@H]1CCOC1)[C@@H]1C[C@H](F)CN1C` [I-27] yielded an IC50 of 2 nM.

`C[C@H](Oc1nc(-c2onc3c2CCC[C@@]32CCCc3sc(N)c(C#N)c32)nc2c1n(C)c(=O)n2C1CCOCC1)[C@@H]1CCCN1C` [I-10]: the IC50 was determined as 5 nM.

The test system of the next data set is NCI-H358 cells. The data set can be described thus: NCI-H358 CTG proliferation assay (120 h) (NSCLC, G12C). In kind it is cell-based. Conditions: Homo sapiens. The procedure: (§1) NCI-H358 cells (ATCC No. CRL-5807) are dispensed into black 384-well plates, flat and clear bottom (Greiner, PNr. 781091) at a density of 200 cells per well in 60 μl RPMI-1640 ATCC-Formulation (Gibco #A10491)+10% FCS (fetal calf serum). Cells are incubated overnight at 37° C. in a humidified tissue culture incubator at 5% CO2. Compounds (10 mM stock in DMSO) are added at logarithmic dose series using the ECHO acoustic liquid handler system (Beckman Coulter), normalizing for added DMSO and including DMSO controls. All compound treatments are performed in technical duplicates. For the TO time point measurement, untreated cells are analyzed at the time of compound addition. Plates are incubated for 120 h, and cell viability is measured using CellTiter-Glo luminescent cell viability reagent (Promega product code G7570). Viability (stated as percent of control) is defined as relative luminescence units RLU of each well divided by the RLU of cells in DMSO controls. IC50 values are determined from viability measurements by non-linear regression using a four-parameter model.
(§2) IC50 values of representative compounds according to the invention measured with these assays in the indicated cell lines are presented in Table 46.
With `C[C@H](Oc1nc(-c2noc3c2CCC[C@@]32CCCc3sc(N)c(C#N)c32)nc2c1CCC21CCOC1)[C@@H]1CCCN1C` (stereo partly drawn) [II-18], the IC50 stood at 43 nM.

In turn, `CCn1c(=O)n([C@@H]2CCOC2)c2nc(-c3onc4c3CCC[C@@]43CCCc4sc(N)c(C#N)c43)nc(O[C@@H](C)[C@@H]3CCCN3C)c21` [I-21] returned an IC50 of 3 nM.

For the molecule `C[C@H](Oc1nc(-c2onc3c2CCC[C@@]32CCCc3sc(N)c(C#N)c32)nc2c1n(C)c(=O)n2[C@@H]1CCOC1)[C@@H]1C[C@H](F)CN1C` [I-27], half-maximal inhibition (IC50) required 39 nM.

As to `C[C@H](Oc1nc(-c2onc3c2CCC[C@@]32CCCc3sc(N)c(C#N)c32)nc2c1n(C)c(=O)n2C1CCOCC1)[C@@H]1CCCN1C` [I-10], the IC50 came to 42 nM.

The subject of the next data set is LOVO cells. Kind of data set: LOVO CTG proliferation assay (120 h) (CRC, G13D). In kind it is cell-based. The note with it: Homo sapiens. The procedure: as §1, with “LOVO” for “NCI-H358”, “CCL-229)” for “CRL-5807)”, “1000” for “200”, “DMEM (Sigma D6429)+10%” for “RPMI-1640 ATCC-Formulation (Gibco #A10491)+10%”, “serum, HyClone, SH30084.03).” for “serum).”
as §2
In the case of `C[C@H](Oc1nc(-c2noc3c2CCC[C@@]32CCCc3sc(N)c(C#N)c32)nc2c1CCC21CCOC1)[C@@H]1CCCN1C` (stereo partly drawn) [II-18], the IC50 is 141 nM.

`CCn1c(=O)n([C@@H]2CCOC2)c2nc(-c3onc4c3CCC[C@@]43CCCc4sc(N)c(C#N)c43)nc(O[C@@H](C)[C@@H]3CCCN3C)c21` [I-21] had an IC50 of 9 nM.

As to `C[C@H](Oc1nc(-c2onc3c2CCC[C@@]32CCCc3sc(N)c(C#N)c32)nc2c1n(C)c(=O)n2[C@@H]1CCOC1)[C@@H]1C[C@H](F)CN1C` [I-27], the IC50 is 52 nM.

As for `C[C@H](Oc1nc(-c2onc3c2CCC[C@@]32CCCc3sc(N)c(C#N)c32)nc2c1n(C)c(=O)n2C1CCOCC1)[C@@H]1CCCN1C` [I-10], the IC50 stood at 53 nM.

Test system in a further data set: not listed separately
The data set can be described thus: Plasma protein binding assay (PPB), equilibrium dialysis. The note with it: bovine, 10% FCS in PBS, read-out: PPB 10% FCS (% fu). In kind it is in vitro ADME. How it is done: Binding of test compounds to plasma was determined using equilibrium dialysis (ED) and quantitative mass spectrometry interfaced with liquid chromatography (LC-MS). In brief, ED was performed with dialysis devices consisting of two chambers separated by a semipermeable membrane with a molecular weight cut-off of 5-10 kg/mol. One chamber was filled with 10% FCS in PBS containing 1-10 μmol/L test compound and the other chamber was filled with phosphate-buffer saline (PBS) with or without dextran. The dialysis chamber was incubated for 3-5 hours at 37° C. After incubation, protein was precipitated from aliquots of each chamber and the concentration of test compound in the supernatant of the plasma-containing compartment (cserum) and of the buffer-containing compartment (cbuffer) was determined by LC-MS. The fraction of unbound test compound (not bound to plasma) (f) was calculated according to the following equation: […]
In general terms: In equilibrium dialysis free small molecules cross a membrane that holds back macromolecules.
For `C[C@H](Oc1nc(-c2noc3c2CCC[C@@]32CCCc3sc(N)c(C#N)c32)nc2c1CCC21CCOC1)[C@@H]1CCCN1C` (stereo partly drawn) [II-18], the fraction unbound worked out at 0.01.

On to `CCn1c(=O)n([C@@H]2CCOC2)c2nc(-c3onc4c3CCC[C@@]43CCCc4sc(N)c(C#N)c43)nc(O[C@@H](C)[C@@H]3CCCN3C)c21` [I-21], for which the fraction unbound is 0.16.

For `C[C@H](Oc1nc(-c2onc3c2CCC[C@@]32CCCc3sc(N)c(C#N)c32)nc2c1n(C)c(=O)n2[C@@H]1CCOC1)[C@@H]1C[C@H](F)CN1C` [I-27], the fraction unbound worked out at 0.15.

Regarding `C[C@H](Oc1nc(-c2onc3c2CCC[C@@]32CCCc3sc(N)c(C#N)c32)nc2c1n(C)c(=O)n2C1CCOCC1)[C@@H]1CCCN1C` [I-10], the fraction unbound came out at 0.24.

Test system in another data set: not listed separately
The data set can be described thus: Solubility measurement (DMSO solution precipitation method). In kind it is physicochemical. The note with it: aqueous buffer, kinetic from dmso stock, McIlvaine buffer pH 4.5, 24 h, read-out: solubility pH 4.5. The method, boiled down:
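A 10 mM DMSO stock was diluted to 250 μM final in McIlvaine buffer at pH 4.5 or 6.8, then shaken 24 h at ambient temperature. After filtering off precipitate, filtrate concentration was quantified by LC-UV against a fully dissolved reference in acetonitrile/water (1:1).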
In general, solubility refers to how much of the substance goes into solution per volume. Turning to `C[C@H](Oc1nc(-c2noc3c2CCC[C@@]32CCCc3sc(N)c(C#N)c32)nc2c1CCC21CCOC1)[C@@H]1CCCN1C` (stereo partly drawn) [II-18], the solubility at 24 h worked out at 89 µg/mL (≈ 152 µM).

As to `CCn1c(=O)n([C@@H]2CCOC2)c2nc(-c3onc4c3CCC[C@@]43CCCc4sc(N)c(C#N)c43)nc(O[C@@H](C)[C@@H]3CCCN3C)c21` [I-21], the solubility at 24 h is above 157 µg/mL.

For the molecule `C[C@H](Oc1nc(-c2onc3c2CCC[C@@]32CCCc3sc(N)c(C#N)c32)nc2c1n(C)c(=O)n2[C@@H]1CCOC1)[C@@H]1C[C@H](F)CN1C` [I-27], the solubility at 24 h was above 153 µg/mL.

Take `C[C@H](Oc1nc(-c2onc3c2CCC[C@@]32CCCc3sc(N)c(C#N)c32)nc2c1n(C)c(=O)n2C1CCOCC1)[C@@H]1CCCN1C` [I-10]: the solubility at 24 h is above 151 µg/mL.

The data set is the same for the next values; noted with them: aqueous buffer, kinetic from dmso stock, McIlvaine buffer pH 6.8, 24 h, read-out: solubility pH 6.8.
Consider `C[C@H](Oc1nc(-c2noc3c2CCC[C@@]32CCCc3sc(N)c(C#N)c32)nc2c1CCC21CCOC1)[C@@H]1CCCN1C` (stereo partly drawn) [II-18], for which the solubility at 24 h amounted to 37 µg/mL (≈ 63.1 µM).

For the molecule `CCn1c(=O)n([C@@H]2CCOC2)c2nc(-c3onc4c3CCC[C@@]43CCCc4sc(N)c(C#N)c43)nc(O[C@@H](C)[C@@H]3CCCN3C)c21` [I-21], the solubility at 24 h is above 144 µg/mL.

With `C[C@H](Oc1nc(-c2onc3c2CCC[C@@]32CCCc3sc(N)c(C#N)c32)nc2c1n(C)c(=O)n2[C@@H]1CCOC1)[C@@H]1C[C@H](F)CN1C` [I-27], the solubility at 24 h was found to be 9 µg/mL (≈ 13.9 µM).

Take `C[C@H](Oc1nc(-c2onc3c2CCC[C@@]32CCCc3sc(N)c(C#N)c32)nc2c1n(C)c(=O)n2C1CCOCC1)[C@@H]1CCCN1C` [I-10]: the solubility at 24 h was above 148 µg/mL.
